# Measured values published in article PMC10254852, “Design, Synthesis and Anticancer Evaluation of Nitroimidazole Radiosensitisers” (Molecules, 2023).
# How the values were obtained:
# [1] = Plasma pharmacokinetics after single i.v. dose; type: in vivo; conditions: female, mouse, iv, NIH-III mice, 2.2 mmol/kg i.v.
# Experimental: (§1) Specific pathogen-free six- to eight-week-old female NIH-III mice, bred in the Vernon Jansen Unit, University of Auckland, were used for animal experiments. Animals had ad libitum access to food and water and were maintained in microisolator cages on a 12 h light/dark cycle. All treatments were administered by i.v. injection at a dose of 2.2 mmol/kg and injection volume of 10 mL/kg. Compounds 2, 34 and 38 were administered as solutions in saline containing 1% DMSO or for 9–12 as solutions in saline containing 2 molar equivalents of NaHCO3. Control animals received an i.v. injection of saline at 10 mL/kg. All animal experiments were conducted under the auspices of the University of Auckland Animal Ethics Committee (approval 1781).
# Female NIH-III mice were injected with a single i.v. dose of 34 at its MAD of 2.2 mmol/kg in saline. Blood was collected by cardiac puncture under terminal CO2 anaesthesia at 5, 10, 30, 60 and 120 min after dosing. Blood was immediately centrifuged (3000× g, 3 min), and plasma was stored at −80 °C for HPLC. Tumour samples were prepared and analysed by HPLC using standard protocols established in our laboratory.
# [2] = system: HCT116/54C tumour xenografts; test: Tumour growth inhibition in combination with radiation; type: in vivo, NIH-III mice; conditions: HCT116/54C tumours
# Experimental: as §1
# (§2) Compounds were evaluated for their ability to inhibit tumour growth in combination with a single dose of radiation (10 Gy) in HCT116/54C or UT-SCC-74B tumour xenografts on the backs of NIH-III mice. In addition, a fractionated radiation schedule (5 Gy on Days 1, 7 and 14) was explored in HCT116/54C tumour xenografts. Mice were randomly assigned to 4 treatment groups and treated with: (A) vehicle control, (B) 10 Gy RAD only, (C) sensitiser only, or (D) sensitiser given 10 min before 10 Gy RAD. Drugs were administered by i.v. injection at 2.2 mmol/kg either as a single dose or three doses on Days 1, 7 and 14 in the fractionated study. Treatment commenced when the average tumour size reached approximately 250 mm^3, and tumour size was measured until study endpoint. Mice were placed in a custom-built lead-shielded jig that allowed irradiation of the whole tumour but shielded the mouse from radiation. Survival analysis represented the time taken for tumours to increase in relative tumour volume by 4× from the start of treatment (RTV^4). The significance of differences in activity between the groups was assessed by log-rank with Holm–Sidak multiple comparison analysis.
# [3] = system: UT-SCC-74B tumour xenografts; test: as above; type: in vivo, NIH-III mice; conditions: UT-SCC-74B tumours, single dose 2.2 mmol/kg i.v.
# Experimental: as §1, §2
smiles,measurement,setting,value
O=[N+]([O-])c1nccn1CS(=O)(=O)NCCN1CCOCC1 [Compound 34],AUC,[1],960 µM·h
same,Cmax,[1],1530 µM
same,half-life,[1],1.52 h
same,survival (time to RTV^4) vs radiation alone,"[2]; fractionated radiation, p < 0.05",significantly increased survival compared to radiation alone
same,tumour growth delay with fractionated radiation,"[2]; qw × 3, 5 Gy, 2.2 mmol/kg i.v.",delayed tumour growth relative to radiation alone
same,tumour growth inhibition with single dose 10 Gy radiation,[2]; single dose 2.2 mmol/kg i.v.,able to sensitise 10 Gy radiation to a similar level observed with 2
same,tumour growth inhibition with single dose 10 Gy radiation,[3],able to sensitise 10 Gy radiation to a similar level observed with 2
